From ChEMBL document CHEMBL1201862, “PubChem BioAssay data set” (2004) come the findings set out here.

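Cultured in 96-well plates, cells were exposed to test compound for 48 hours across five concentrations. The concentration for 50% growth inhibition is given as GI50.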 Active and inactive are the calls of the source. No stated cut-off is given here; in the data, active = GI50 up to about 1.1 µM and inactive = higher.

Among the test systems are SNB-78; HCC 2998; HCT-116; EKVX; NCI-H460; UACC-62; OVCAR-4; SNB-75; ACHN; OVCAR-5; SF-295; CAKI-1; DMS-273; NCI-H226; OVCAR-8; HOP-18.
Holding throughout (assay): NCI tumour cell line growth inhibition, 48 h

With `O=C(OCc1ccccc1)OOC(=O)OCc1ccccc1`, the GI50 in the test with SNB-78, in the test on HCC 2998, with HCT-116, in the test with EKVX, in the test on NCI-H460 and with UACC-62 was > 100 µM (inactive) throughout. The GI50 with OVCAR-4 is > 100 µM (inactive); in the test with SNB-75 it was 99.1 µM (inactive); with ACHN it was > 100 µM (inactive); in the test on OVCAR-5, > 100 µM (inactive); in the test on SF-295, > 100 µM (inactive); in the test on CAKI-1, > 100 µM (inactive).
For `CCCCCCSc1nc(N)nc2nc[nH]c12`, the GI50 is 38.5 µM (inactive) in the test on SNB-78; 43.7 µM (inactive) in the test with DMS-273; > 55.5 µM (inactive) with HCC 2998; 35.2 µM (inactive) in the test on HCT-116; 60.1 µM (inactive) with EKVX; 39.3 µM (inactive) with NCI-H460. Besides, the GI50 in the test with UACC-62 is 37 µM (inactive); in the test with NCI-H226, 32.1 µM (inactive); in the test with OVCAR-4, 52.7 µM (inactive); with SNB-75, 17 µM (inactive); with OVCAR-8 it was 42.5 µM (inactive); in the test with OVCAR-5 it was 41.2 µM (inactive). Further, the GI50 in the test with SF-295 is 59.6 µM (inactive).
For the compound `CC[C@H]1CN2CCc3cc(OC)c(OC)cc3[C@@H]2C[C@@H]1C[C@H]1NCCc2cc(O)c(OC)cc21`, the GI50 with DMS-273 is 0.0344 µM (active); in the test with HCC 2998 it was 0.0261 µM (active); in the test on HCT-116, 0.025 µM (active); in the test on EKVX, 0.025 µM (active); with NCI-H460, 0.0282 µM (active); in the test on UACC-62, 0.0478 µM (active). Further, the GI50 in the test with OVCAR-4 was 0.025 µM (active); in the test on OVCAR-8, 0.025 µM (active); in the test with OVCAR-5, 0.25 µM (active); in the test with SF-295, 0.0326 µM (active); in the test on CAKI-1, 0.025 µM (active).
As for `COc1ccc(/C(Cl)=C(\C=O)c2ccc(F)cc2)cc1`, the GI50 in the test on SNB-78 is 7.53 µM (inactive); in the test on HOP-18, 6.58 µM (inactive); in the test on DMS-273, 14.9 µM (inactive); in the test on HCT-116 it was 5.08 µM (inactive); in the test with EKVX, 16.9 µM (inactive); in the test with NCI-H460 it was 4.46 µM (inactive). Further, the GI50 was 9.08 µM (inactive) in the test with UACC-62; 11.7 µM (inactive) in the test with NCI-H226; 2.27 µM (inactive) in the test with SNB-75; 10.8 µM (inactive) in the test with OVCAR-8; 6.14 µM (inactive) in the test with ACHN; 8.43 µM (inactive) in the test on SF-295. In addition, the GI50 in the test on CAKI-1 is 8.18 µM (inactive).
On to `C=C1C[C@@H](O)C[C@@]2(C)C[C@@H]3OC(=O)C(=C)[C@@H]3C[C@H]12`, for which the GI50 is 7.69 µM (inactive) in the test with SNB-78; 3.98 µM (inactive) with HOP-18; 5.35 µM (inactive) with DMS-273; 3.82 µM (inactive) in the test on HCC 2998; 3.43 µM (inactive) in the test on HCT-116; 16.5 µM (inactive) in the test on NCI-H460. For the same compound, the GI50 with UACC-62 is 5.96 µM (inactive); in the test on NCI-H226 it was 14 µM (inactive); with OVCAR-4, 15.2 µM (inactive); in the test on SNB-75 it was 8.47 µM (inactive); in the test with OVCAR-8, 16 µM (inactive); with OVCAR-5, 7.36 µM (inactive). For the same compound, the GI50 is 15.3 µM (inactive) with SF-295 and 4.22 µM (inactive) in the test on CAKI-1.
Turning to `C=C(CS(=O)(=O)c1ccccc1)[P+](c1ccccc1)(c1ccccc1)c1ccccc1`, the GI50 was 38 µM (inactive) with SNB-78; 16.4 µM (inactive) in the test with DMS-273; 20.8 µM (inactive) in the test on HCC 2998; 12.7 µM (inactive) in the test on HCT-116; 30.4 µM (inactive) with EKVX; 22.1 µM (inactive) with NCI-H460. For the same compound, the GI50 with UACC-62 is 22.9 µM (inactive); in the test on NCI-H226, 16.4 µM (inactive); in the test with OVCAR-4, 37.9 µM (inactive); with SNB-75, 12.6 µM (inactive); in the test with OVCAR-8 it was 14.8 µM (inactive); in the test with ACHN it was 21.7 µM (inactive). Besides, the figures for the GI50 in the test with OVCAR-5, in the test on SF-295 and with CAKI-1 were 33.9 µM (inactive), 20.2 µM (inactive) and 23.4 µM (inactive), respectively.
Regarding `CCOC(=O)C(=O)NC12CC3CC(CC(C3)C1)C2`, the GI50 with HOP-18, in the test with DMS-273, in the test with HCC 2998, in the test with HCT-116, with EKVX and with NCI-H460 was > 100 µM (inactive) each time. The GI50 in the test on UACC-62, in the test on NCI-H226, in the test on OVCAR-4, in the test with SNB-75, in the test with OVCAR-8 and in the test with ACHN was > 100 µM (inactive) throughout. Moreover, the GI50 in the test with OVCAR-5, in the test on SF-295 and with CAKI-1 was > 100 µM (inactive) throughout.
On to `CN(C)CCNC(=O)c1cc(Cl)cc2cc3ccccc3nc12`, for which the GI50 was 1.97 µM (inactive) in the test with SNB-78; 6.44 µM (inactive) in the test with HOP-18; 0.733 µM (active) in the test with DMS-273; 1.39 µM (inactive) in the test on HCC 2998; 0.445 µM (active) with HCT-116; 1.43 µM (inactive) with EKVX. Moreover, the GI50 is 0.311 µM (active) with NCI-H460; 0.652 µM (active) in the test with UACC-62; 0.843 µM (active) in the test on NCI-H226; 2.2 µM (inactive) in the test with OVCAR-4; 2.27 µM (inactive) with SNB-75; 0.542 µM (active) in the test on OVCAR-8. For the same compound, the GI50 was 1.15 µM (inactive) in the test on OVCAR-5 and 0.492 µM (active) in the test with SF-295.
For `N/N=C(\C(=O)Nc1c(Cl)cc([N+](=O)[O-])cc1Cl)C(c1cnc2ccc([N+](=O)[O-])cc2n1)[N+](=O)[O-]` (centres undefined), the GI50 is 40.4 µM (inactive) in the test with SNB-78; 38.6 µM (inactive) in the test on DMS-273; 82.2 µM (inactive) with HCC 2998; > 100 µM (inactive) with HCT-116; 37.8 µM (inactive) with EKVX; > 100 µM (inactive) in the test with NCI-H460. Also, the GI50 in the test with UACC-62 is 36.9 µM (inactive); in the test on NCI-H226, 6.71 µM (inactive); with OVCAR-4, > 100 µM (inactive); with SNB-75, 56.9 µM (inactive); in the test on OVCAR-8, > 100 µM (inactive); in the test with ACHN, > 100 µM (inactive). For the same compound, the GI50 was > 100 µM (inactive) in the test with OVCAR-5, > 100 µM (inactive) with SF-295 and 66.1 µM (inactive) with CAKI-1.
For `COc1c2c(cc3c(CCc4ccccc4)cc(=O)oc13)CCC(C)(C)O2`, the GI50 in the test on DMS-273, with HCC 2998, in the test on HCT-116, in the test with EKVX, in the test on NCI-H460 and in the test on UACC-62 was > 100 µM (inactive) throughout. Moreover, the GI50 in the test on NCI-H226, with SNB-75, in the test on OVCAR-8, in the test with ACHN, in the test on OVCAR-5 and in the test on SF-295 was > 100 µM (inactive) each time.
Regarding `C[S+](C)CC1OC(n2cnc3c(N)ncnc32)C(O)C1O` (centres undefined), the GI50 in the test on SNB-78, in the test with DMS-273, in the test on HCC 2998, in the test on HCT-116, in the test with EKVX and with NCI-H460 was > 225 µM (inactive) in each case. For the same compound, the GI50 is > 96.2 µM (inactive) with UACC-62; > 225 µM (inactive) with NCI-H226; > 225 µM (inactive) in the test with OVCAR-4; > 225 µM (inactive) with SNB-75; > 225 µM (inactive) in the test with OVCAR-8; > 225 µM (inactive) in the test on OVCAR-5. Moreover, the GI50 in the test with SF-295 and with CAKI-1 was > 225 µM (inactive) in each case.
For `COC(=O)C(Cc1ccc(N(C)C)cc1)(NC(=O)c1ccccc1)P(=O)(OC)OC` (centres undefined), the GI50 in the test on DMS-273, in the test with HCC 2998, with HCT-116, in the test on EKVX, in the test with NCI-H460 and in the test on UACC-62 was > 100 µM (inactive) in each case. The GI50 in the test with NCI-H226, with OVCAR-4, with SNB-75, with OVCAR-8, in the test on ACHN and with OVCAR-5 was > 100 µM (inactive) each time. For the same compound, the GI50 in the test on SF-295 and with CAKI-1 was > 100 µM (inactive) in each case.
For `O=S1(=O)CC#CC[C@@H](CO)[C@@H](CO)CC#CC1`, the GI50 with SNB-78 is > 100 µM (inactive); in the test on HCC 2998, > 100 µM (inactive); in the test with HCT-116, 61.2 µM (inactive); in the test on EKVX it was > 100 µM (inactive); with NCI-H460 it was > 100 µM (inactive); with UACC-62, > 100 µM (inactive). Also, the GI50 with OVCAR-4 was > 100 µM (inactive); in the test with SNB-75, 82 µM (inactive); in the test with OVCAR-8, > 100 µM (inactive); with ACHN, > 100 µM (inactive); with OVCAR-5, > 100 µM (inactive); in the test on SF-295, > 100 µM (inactive).
For the compound `O=C1C2C3C=C4c5ccccc5N(c5ccccc5)C4(C2C(=O)N1Cc1ccccc1)C1C(=O)N(Cc2ccccc2)C(=O)C31` (centres undefined), the GI50 in the test with SNB-78 is > 100 µM (inactive); with HOP-18 it was > 100 µM (inactive); with HCC 2998, > 100 µM (inactive); in the test on HCT-116, > 100 µM (inactive); in the test with NCI-H460, > 100 µM (inactive); in the test with SNB-75, 16.1 µM (inactive). In addition, the GI50 is 39.4 µM (inactive) with OVCAR-8; > 100 µM (inactive) with ACHN; > 100 µM (inactive) with OVCAR-5; 64 µM (inactive) with SF-295; > 10 µM (inactive) in the test on CAKI-1.
As for `C[Si](C)(C)/C(I)=C/CO`, the GI50 is 28.6 µM (inactive) in the test with SNB-78; 32 µM (inactive) in the test with HOP-18; 20.6 µM (inactive) in the test on DMS-273; 14.3 µM (inactive) in the test on HCT-116; 29.9 µM (inactive) in the test with EKVX; 19.7 µM (inactive) in the test with NCI-H460. The GI50 is 20.4 µM (inactive) with UACC-62; 20.4 µM (inactive) in the test with NCI-H226; 38.3 µM (inactive) with OVCAR-4; 53.6 µM (inactive) in the test with SNB-75; 29.7 µM (inactive) in the test on OVCAR-8; 17 µM (inactive) in the test on ACHN. Besides, the GI50 in the test with OVCAR-5 was 30.5 µM (inactive); in the test on SF-295, 24.9 µM (inactive).
